Measurements: patent US10052306B2 (LUC THERAPEUTICS, INC., priority 2013, dated 2018)
Where “and” joins values, the source holds several entries; their conditions need not be identical. Identical values can stand only once.

Columns and labels:
NR1/NR2B [1] = target: NR1/NR2B (Homo sapiens (Human), UniProt Q05586+Q13224); assay: Cell assay: FDSS Ca2+ influx inhibition in HEK293 cells expressing NR1/NR2B; conditions: Binned Activity, HEK293 cells expressing NR1/NR2B, Ca2+ influx; binned NR2B NAM IC50;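 further: Fluo-8 Ca2+ signal read on Hamamatsu FDSS 6000 after glutamate, glycine and Ca2+ challenge following 10 min compound preincubation, end/baseline fluorescence ratio compared with MK801 control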
Chain of NR1/NR2B (Homo sapiens (Human), UniProt Q05586+Q13224) (Q13224 27-1484, other chains not shown): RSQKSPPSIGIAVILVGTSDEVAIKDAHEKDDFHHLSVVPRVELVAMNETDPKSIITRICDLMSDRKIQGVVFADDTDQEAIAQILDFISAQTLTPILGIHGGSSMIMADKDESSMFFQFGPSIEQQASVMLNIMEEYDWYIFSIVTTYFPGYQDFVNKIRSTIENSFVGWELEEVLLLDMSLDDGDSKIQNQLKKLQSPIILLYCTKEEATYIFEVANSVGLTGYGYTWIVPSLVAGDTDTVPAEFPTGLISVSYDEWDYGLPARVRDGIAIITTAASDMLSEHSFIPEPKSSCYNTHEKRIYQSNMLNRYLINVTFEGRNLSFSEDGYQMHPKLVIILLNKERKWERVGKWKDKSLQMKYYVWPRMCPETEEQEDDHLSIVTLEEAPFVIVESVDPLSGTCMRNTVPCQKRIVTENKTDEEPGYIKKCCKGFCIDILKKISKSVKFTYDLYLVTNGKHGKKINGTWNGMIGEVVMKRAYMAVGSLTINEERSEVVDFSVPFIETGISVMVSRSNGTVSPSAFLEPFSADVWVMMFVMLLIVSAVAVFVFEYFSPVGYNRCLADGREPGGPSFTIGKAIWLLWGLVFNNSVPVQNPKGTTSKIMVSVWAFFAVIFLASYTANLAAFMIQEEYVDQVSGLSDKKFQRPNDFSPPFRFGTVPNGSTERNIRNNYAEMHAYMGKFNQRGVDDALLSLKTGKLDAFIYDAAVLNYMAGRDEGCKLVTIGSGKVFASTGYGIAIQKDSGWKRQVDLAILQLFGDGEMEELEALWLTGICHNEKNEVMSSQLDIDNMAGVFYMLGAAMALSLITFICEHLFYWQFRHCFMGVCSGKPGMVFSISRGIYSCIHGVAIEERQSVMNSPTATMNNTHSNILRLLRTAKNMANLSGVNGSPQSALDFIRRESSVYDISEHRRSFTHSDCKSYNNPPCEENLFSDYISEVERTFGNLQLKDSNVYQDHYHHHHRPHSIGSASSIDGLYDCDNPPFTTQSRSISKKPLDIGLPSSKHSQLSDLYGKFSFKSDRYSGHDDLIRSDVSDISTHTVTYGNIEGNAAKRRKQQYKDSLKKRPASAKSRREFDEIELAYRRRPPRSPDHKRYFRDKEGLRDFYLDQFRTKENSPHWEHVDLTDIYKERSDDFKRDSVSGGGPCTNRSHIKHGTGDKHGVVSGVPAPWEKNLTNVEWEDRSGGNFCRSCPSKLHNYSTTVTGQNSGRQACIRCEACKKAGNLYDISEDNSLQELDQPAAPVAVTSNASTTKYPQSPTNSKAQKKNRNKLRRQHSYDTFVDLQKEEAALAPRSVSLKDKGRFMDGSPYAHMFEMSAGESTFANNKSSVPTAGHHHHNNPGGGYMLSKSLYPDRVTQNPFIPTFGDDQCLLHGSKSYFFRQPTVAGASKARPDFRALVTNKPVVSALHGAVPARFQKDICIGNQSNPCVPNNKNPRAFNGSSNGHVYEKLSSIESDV
Procedure: (§1) Cell Culture and plating: HEK293 cells expressing NR1/NR2B (Chantest, Cleveland, Ohio) were grown to 70-80% confluency as an adherent monolayer in standard tissue culture flasks at 37° C., 5% CO2 per supplier's instructions. NR2B expression was induced by incubation with 0.3-0.4 μg/ml tetracycline in the presence of 4 mM ARL-15896 for 18-24 hours under the same growth conditions, then transferred to 30° C. for another 3-5 hours.
(§2) After induction, cell culture medium was removed and cells were rinsed once with Ca^2+ and Mg^2+-free Dulbecco's phosphate buffered saline. Cells were then removed from the flask using TrypLE™ Express (Life Technologies) according to the manufacturer's instructions and collected to 50 ml centrifuge tubes. Following two washes in Ca^2+/Mg^2+-free HBSS with 20 mM HEPES (HHnoCa), cells were counted and viability assessed using trypan blue. To load cells with Ca^2+-sensitive dye, they were resuspended in fluo-8 plus Component B (AAT Bioquest Products) diluted in HHnoCa and incubated 15 minutes at 37° C., followed by 30 minutes at room temp (in dark). Cells were then washed and resuspended in HHnoCa to remove extracellular dye and plated in 384-well plates (Falcon, uncoated) at 20,000-30,000 cells/well in a final volume of 25 μl/well.
(§3) FDSS Assay: To each well of the plate, 10 μL test compound, control (MK801) or HHnoCa buffer was added to a final concentration of 10 μM with a final concentration of DMSO of 0.1%. Following 10 minutes pre-incubation in the dark, plates are loaded onto the Hamamatsu FDSS 6000. After collecting baseline fluorescence images, 3 μM glutamate, 3 glycine, and 1 mM Ca^2+ in HHnoCa buffer is added to each well, and Ca^2+ is recorded for 3 minutes. Data were processed by computing ratio of fluorescence at the end of data collection to baseline fluorescence to assess degree of Ca′ influx inhibition relative to that observed in MK801.

NR1/NR2B [2] = target: NR1/NR2B (Homo sapiens (Human), UniProt Q13224); assay: as above; conditions: read-out: NR2B NAM IC50; HEK293 cells expressing NR1/NR2B, Ca2+ influx
Chain of NR1/NR2B (Homo sapiens (Human), UniProt Q13224) (Q13224 27-1484, other chains not shown): as above
Procedure: as §1, §2, §3

| IC50 (NR1/NR2B [1]) | IC50 (NR1/NR2B [2]) | SMILES |
| --- | --- | --- |
| > 10000 nM | 10000 nM | CC(C)(O)c1ccc(C(=O)CN2C[C@@H]3C[C@@](O)(Cc4ccccc4)C[C@@H]3C2)cc1 [Example 138, 2-((3aR,5r,6aS)-5-benzyl-5-hydroxyhexahydrocyclo-penta[c]pyrrol-2(1H)-yl)-1-(4-(2-hydroxypropan-2-yl)phenyl)ethanone] |
| 1000 to 10000 nM | 6940 nM | O=C(CN1C[C@@H]2C[C@@](O)(Cc3ccccc3)C[C@@H]2C1)c1ccc(O)cn1 [Example 140, 2-((3aR,5r,6S)-5-benzyl-5-hydroxyhexahydrocyclo-penta[c]pyrrol-2(1H)-yl)-1-(5-hydroxypyridin-2-yl)ethanone] |
| > 10000 nM | 10000 nM | CC(=O)Nc1ccc(C(=O)CN2C[C@@H]3C[C@@](O)(Cc4ccccc4)C[C@@H]3C2)cc1 [Example 141, N-(4-(2-((3aR,5r,6aS)-5-benzyl-5-hydroxyhexahydrocyclo-penta[c]pyrrol-2(1H)-yl)acetyl)phenyl) acetamide] |
| 100 to 1000 nM | 326 nM | CS(=O)(=O)Nc1ccc(C(=O)CN2C[C@@H]3C[C@@](O)(Cc4ccccc4)C[C@@H]3C2)cc1 [Example 146, N-(4-(2-((3aR,5r,6aS)-5-benzyl-5-hydroxyhexahydrocyclo-penta[c]pyrrol-2(1H)-yl)acetyl)phenyl)methane-sulfonamide] |
| 100 to 1000 nM | 352 nM | O=C1Cc2cc(C(=O)CN3C[C@@H]4C[C@@](O)(Cc5ccccc5)C[C@@H]4C3)ccc2N1 [Example 147, 5-(2-((3aR,5r,6aS)-5-benzyl-5-hydroxyhexahydrocyclo-penta[c]pyrrol-2(1H)-yl)acetyl)indolin-2-one] |
| 100 to 1000 nM | 137 nM | O=C1CCc2cc(C(=O)CN3C[C@@H]4C[C@@](O)(Cc5ccccc5)C[C@@H]4C3)ccc2N1 [Example 148, 6-(2-((3aR,5r,6aS)-5-benzyl-5-hydroxyhexahydrocyclo-penta[c]pyrrol-2(1H)-yl)acetyl)-3,4-dihydroquinolin-2(1H)-one] |
| 100 to 1000 nM | 372 nM | O=C(CN1C[C@@H]2C[C@@](O)(Cc3ccccc3)C[C@@H]2C1)c1ccc(O)c(F)c1 [Example 151, 2-((3aR,5r,6aS)-5-benzyl-5-hydroxyhexahydrocyclo-penta[c]pyrrol-2(1H)-yl)-1-(3-fluoro-4-hydroxyphenyl)ethanone] |
| > 10000 nM | 10000 nM | O=C(CN1C[C@@H]2C[C@@](O)(Cc3ccccc3)C[C@@H]2C1)c1ccc(Cl)nc1 [Example 155, 2-((3aR,5r,6aS)-5-benzyl-5-hydroxyhexahydrocyclo-penta[c]pyrrol-2(1H)-yl)-1-(6-chloropyridin-3-yl)ethanone] |
| > 10000 nM | 10000 nM | O=C(CN1C[C@@H]2C[C@@](O)(Cc3ccccc3)C[C@@H]2C1)c1ccc(=O)[nH]n1 [Example 157, 6-(2-((3aR,5r,6aS)-5-benzyl-5-hydroxyhexahydrocyclo-penta[c]pyrrol-2(1H)-yl)acetyl)pyridazin-3(2H)-one] |
| > 10000 nM | 10000 nM | COc1ccc(C(=O)CN2C[C@@H]3C[C@@](O)(Cc4ccccc4)C[C@@H]3C2)cn1 [Example 161, 2-((3aR,5r,6aS)-5-benzyl-5-hydroxyhexahydrocyclo-penta[c]pyrrol-2(1H)-yl)-1-(6-methoxypyridin-3-yl)ethanone] |
| > 10000 nM | 10000 nM | O=C(CN1C[C@@H]2C[C@@](O)(Cc3ccccc3)C[C@@H]2C1)c1ccc2[nH]nnc2c1 [Example 167, 2-[(3aR,5R,6aS)-5-benzyl-5-hydroxy-octahydrocyclopenta[c]pyrrol-2-yl]-1-(1H-1,2,3-benzotriazol-5-yl)ethan-1-one] |
| > 10000 nM | 10000 nM | O=C(CN1C[C@@H]2C[C@@](O)(Cc3ccccc3)C[C@@H]2C1)c1ccc(O)nc1 [Example 178, 2-[(3aR,5R,6aS)-5-benzyl-5-hydroxy-octahydrocyclopenta[c]pyrrol-2-yl]-1-(6-hydroxypyridin-3-yl)ethan-1-one] |
| > 10000 nM | 10000 nM | O=C(CN1C[C@@H]2C[C@@](O)(Cc3ccccc3)C[C@@H]2C1)c1cnc(O)cn1 [Example 187, 2-((3aR,5r,6aS)-5-benzyl-5-hydroxyhexahydrocyclo-penta[c]pyrrol-2(1H)-yl)-1-(5-hydroxypyrazin-2-yl)ethanone] |

The next lines start with the compound.

| SMILES | IC50 (NR1/NR2B [1]) | IC50 (NR1/NR2B [2]) |
| --- | --- | --- |
| Oc1ccc([C@H](O)CN2C[C@@H]3C[C@@](O)(Cc4ccccc4)C[C@@H]3C2)cc1 [Example 137, (3aR,5S,6aS)-5-benzyl-2-((S)-2-hydroxy-2-(4-hydroxyphenyl)ethyl)octa-hydrocyclopenta[c]pyrrol-5-ol] | < 100 nM | 20.4 nM |
| O=C(Cc1ccc(O)cc1)CN1C[C@@H]2C[C@@](O)(Cc3ccccc3)C[C@@H]2C1 [Example 145, 1-((3aR,5r,6aS)-5-benzyl-5-hydroxyhexahydrocyclo-penta[c]pyrrol-2(1H)-yl)-3-(4-hydroxyphenyl)propan-2-one] | > 10000 nM | 10000 nM |
| Oc1ccc([C@H](O)CN2C[C@@H]3C[C@@](O)(Cc4ccccc4)C[C@@H]3C2)cc1F [Example 156, (3aR,5S,6aS)-5-benzyl-2-((S)-2-(3-fluoro-4-hydroxyphenyl)-2-hydroxyethyl)octahydro-cyclopenta[c]pyrrol-5-ol] | < 100 nM | 30.5 nM |
| O=C(CN1C[C@@H]2C[C@@](O)(Cc3ccccc3)C[C@@H]2C1)c1cc(F)c(O)c(F)c1 [Example 159, 2-((3aR,5r,6aS)-5-benzyl-5-hydroxyhexahydrocyclo-penta[c]pyrrol-2(1H)-yl)-1-(3,5-difluoro-4-hydroxyphenyl)ethanone] | > 10000 nM | 11600 nM |
| O=C(CN1C[C@@H]2C[C@@](O)(Cc3ccccc3)C[C@@H]2C1)c1cnc(OCc2ccccc2)cn1 [Example 162, 2-((3aR,5r,6aS)-5-benzyl-5-hydroxyhexahydrocyclo-penta[c]pyrrol-2(1H)-yl)-1-(5-(benzyloxy)pyrazin-2-yl)ethanone] | > 10000 nM | 10000 nM |
| Oc1ccc([C@H](O)CN2C[C@@H]3C[C@@](O)(Cc4ccccc4)C[C@@H]3C2)nc1 [Example 165, (3aR,5R,6aS)-5-benzyl-2-((R)-2-hydroxy-2-(5-hydroxypyridin-2-yl)ethyl)octahydrocyclo-penta[c]pyrrol-5-ol] | < 100 nM | 33.7 nM |
| O=C(CN1C[C@@H]2C[C@@](O)(Cc3ccc(F)cc3)C[C@@H]2C1)c1ccc(O)cn1 [Example 166, 2-((3aR,5r,6aS)-5-(4-fluorobenzyl)-5-hydroxyhexahydrocyclo-penta[c]pyrrol-2(1H)-yl)-1-(5-hydroxypyridin-2-yl)ethanone] | 1000 to 10000 nM | 6400 nM |
| O=C(CN1C[C@@H]2C[C@@](O)(Cc3ccc(F)cc3)C[C@@H]2C1)c1ccc(O)c(F)c1 [Example 169, 1-(3-fluoro-4-hydroxyphenyl)-2-((3aR,5r,6aS)-5-(4-fluorobenzyl)-5-hydroxyhexahydrocyclo-penta[c]pyrrol-2(1H)-yl)ethanone] | 100 to 1000 nM | 117 nM |
| CO[C@@]1(Cc2ccccc2)C[C@H]2CN(CC(=O)c3ccc(O)c(F)c3)C[C@H]2C1 [Example 170, 2-((3aR,5r,6aS)-5-benzyl-5-methoxyhexahydrocyclo-penta[c]pyrrol-2(1H)-yl)-1-(3-fluoro-4-hydroxyphenyl)ethanone] | 100 to 1000 nM | 132 nM |
| O=C(COc1ccc(C(=O)CN2C[C@@H]3C[C@@](O)(Cc4ccccc4)C[C@@H]3C2)cc1F)c1ccc(O)c(F)c1 [Example 172, 2-((3aR,5r,6aS)-5-benzyl-5-hydroxyhexahydrocyclo-penta[c]pyrrol-2(1H)-yl)-1-(3-fluoro-4-(2-(3-fluoro-4-hydroxyphenyl)-2-oxoethoxy)phenyl)ethanone] | > 10000 nM | 10000 nM |
| O=C(COc1ccc(C(=O)CN2C[C@@H]3C[C@@](O)(Cc4ccc(F)cc4)C[C@@H]3C2)cc1F)c1ccc(O)c(F)c1 [Example 173, 2-(2-fluoro-4-(2-((3aR,5r,6aS)-5-(4-fluorobenzyl)-5-hydroxyhexahydrocyclo-penta[c]pyrrol-2(1H)-yl)acetyl)phenoxy)-1-(3-fluoro-4-hydroxyphenyl)ethanone] | > 10000 nM | 10000 nM |
| CO[C@@]1(Cc2ccccc2)C[C@H]2CN(CC(=O)c3ccc(O)cc3)C[C@H]2C1 [Example 174, 2-((3aR,5r,6aS)-5-benzyl-5-methoxyhexahydrocyclo-penta[c]pyrrol-2(1H)-yl)-1-(4-hydroxyphenyl)ethanone] | < 100 nM | 57.2 nM |
| Oc1ccc([C@@H](O)CN2C[C@@H]3C[C@@](O)(Cc4ccccc4)C[C@@H]3C2)cc1F [Example 180, (3aR,5R,6aS)-5-benzyl-2-((R)-2-(3-fluoro-4-hydroxyphenyl)-2-hydroxyethyl)octahydro-cyclopenta[c]pyrrol-5-ol] | < 100 nM | 22.3 nM and 22.8 nM |
| Cc1ccccc1C[C@]1(O)C[C@H]2CN(CC(=O)c3ccc(O)cc3)C[C@H]2C1 [Example 183, 2-((3aR,5r,6aS)-5-hydroxy-5-(2-methylbenzyl)hexahydro-cyclopenta[c]pyrrol-2(1H)-yl)-1-(4-hydroxyphenyl)ethanone] | 100 to 1000 nM | 145 nM |
| COc1ccc(C[C@]2(O)C[C@H]3CN(CC(=O)c4ccc(O)cc4)C[C@H]3C2)cc1 [Example 184, 2-[(3aR,5R,6aS)-5-hydroxy-5-[(4-methoxyphenyl)methyl]-octahydrocyclopenta[c]pyrrol-2-yl]-1-(4-hydroxyphenyl)ethan-1-one] | < 100 nM | 43.3 nM |
